In US20050187181A1 (University of Maryland, priority 2004, published 2005):
“Also recorded” adds a separate entry of the source.

Key:
[1] = test system: rats in severe hemorrhagic shock; experiment: Rat shock model for adenosine experiments (0.5 mM adenosine resuscitation); type: in vivo
Protocol: It was hypothesized that stimulation of Na/K ATPase with adenosine may reverse, alleviate or attenuate the effects of an endogenous inhibitor that appears during hemorrhagic shock. […] Blood samples (0.5 ml) were taken before hemorrhage, before resuscitation and 1 hr after resuscitation for measurement of plasma K and Na.
All animal procedures are conducted with the authorization of the Institutional Animal Care and Use Committee at the University of Maryland, School of Medicine. […] Blood samples (0.5 ml) were taken before hemorrhage, before resuscitation and 1 hr after resuscitation for measurement of plasma K and Na. Blood was centrifuged 3500 rpm for 2 min, plasma removed and K and Na was measured by flame photometer. Before and after resuscitation potassium (K) was analyzed by Newman Keul post hoc test after ANOVA.

[2] = test system: rats in severe hemorrhagic shock
Protocol: Pentobarbital-anesthetized rats were subjected to severe hemorrhagic shock. Five groups of eight rats were resuscitated.
Plasma K^+ was measured from plasma taken before hemorrhage, before resuscitation and 0.5 hrs after resuscitation using a K^+ electrode (Jenco Electronics, Inc., San Diego, Calif.). Survival time between groups was compared by Kaplan-Meier survival Analysis.

Na/K ATPase = Na/K ATPase assay (86Rb uptake into red blood cells);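 also: washed human red blood cells in K-free Ringer, test agent preincubated 20 min, then 86Rb uptake over 4 h at 37 °C counted as CPM per tube versus water control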

How did the “plasma K after resuscitation” value ([1]; 1 hr after resuscitation, 0.5 mM) turn out when Nc1ncnc2c1ncn2[C@@H]1O[C@H](CO)[C@@H](O)[C@H]1O [adenosine] was run?
Its value is “recovery of plasma K to prehemorrhage levels by 1 hr”.

What about the survival ([1]; at about 70 minutes after resuscitation, 0.5 mM) of the same compound?
The survival was 100%.

And the survival ([1]; at about 160 minutes, 0.5 mM)?
Its survival is “about 25%”.

What about the survival ([1]; from 70 to 120 minutes, 0.5 mM) of the same compound?
The survival was 85%.

And the bradycardia ([1]; shocked rats, 0.5 mM infusion (about 3 to 4.5 mg/kg))?
Its bradycardia is “caused bradycardia”.

And the “survival compared to saline alone (Kaplan-Meier)” value ([1]; single dose 0.5 mM in saline, infusion volume equal to blood lost, p<0.01)?
Its value is “significantly prolonged survival”.

What about the “effect on shock-elevated plasma K^+” value ([2]; 2.5 mM in saline, 0.5 hr) of the same compound?
The value was “lowered the shock-elevated plasma K^+”.

And the “Plasma K^+ 0.5 hr after Resuscitation” value ([2]; 2.5 mM in saline, mean ± SE, N = 7/group)?
Its value is 3.10 ± 0.20 mM.

And the “survival compared to saline and cytidine controls (Kaplan-Meier)” value ([2]; single dose of 2.5 mM in saline, 8 rats/group, p<0.001)?
Its value is “survived significantly longer than saline or cytidine controls; also recorded: significantly increased survival; also recorded: survived significantly longer”.

And the “relative effectiveness at stimulating Na/K ATPase” value (Na/K ATPase; 10^-3 Molar (FIG. 8))?
Its value is “more effective at stimulating Na/K ATPase than guanosine and inosine”.

What about the “stimulation of Na/K ATPase” value (Na/K ATPase; human red blood cells, dose response (FIG. 3b, FIG. 8)) of the same compound?
The value was “stimulated Na/K ATPase in a dose-dependent manner”.

And the “stimulation of Na/K ATPase in the presence of ouabain” value (Na/K ATPase; partial inhibition / sub maximal doses of ouabain (FIG. 9))?
The value was “this stimulation occurs even in the presence of ouabain”.
